Experimental data: patent US11214565B2, “Compound, compositions, and methods” (Denali Therapeutics Inc., priority 2015, dated 2022)

Molecular target: LRRK2 G2019S enzyme (Homo sapiens (Human), UniProt Q5S007, G2019S)
Assay: LRRK2 G2019S TR-FRET biochemical kinase assay (LRRKtide substrate)
Details: Table C-2; 5 nM LRRK2, 134 μM ATP, 60 minute reaction, 23° C.
How it was run: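 5 nM LRRK2 G2019S preincubated 20 min with LRRKtide and compound (3.162-fold dilution series) in Tris pH 7.5, MgCl2, EGTA, Brij-35, DTT, then reacted 60 min at 23 °C with 134 μM ATP. EDTA-stopped; pLRRKtide antibody detection, TR-FRET read at 340 nm excitation, 520/490–495 nm emission.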

Chain of LRRK2 G2019S enzyme (Q5S007 whole entry G2019S): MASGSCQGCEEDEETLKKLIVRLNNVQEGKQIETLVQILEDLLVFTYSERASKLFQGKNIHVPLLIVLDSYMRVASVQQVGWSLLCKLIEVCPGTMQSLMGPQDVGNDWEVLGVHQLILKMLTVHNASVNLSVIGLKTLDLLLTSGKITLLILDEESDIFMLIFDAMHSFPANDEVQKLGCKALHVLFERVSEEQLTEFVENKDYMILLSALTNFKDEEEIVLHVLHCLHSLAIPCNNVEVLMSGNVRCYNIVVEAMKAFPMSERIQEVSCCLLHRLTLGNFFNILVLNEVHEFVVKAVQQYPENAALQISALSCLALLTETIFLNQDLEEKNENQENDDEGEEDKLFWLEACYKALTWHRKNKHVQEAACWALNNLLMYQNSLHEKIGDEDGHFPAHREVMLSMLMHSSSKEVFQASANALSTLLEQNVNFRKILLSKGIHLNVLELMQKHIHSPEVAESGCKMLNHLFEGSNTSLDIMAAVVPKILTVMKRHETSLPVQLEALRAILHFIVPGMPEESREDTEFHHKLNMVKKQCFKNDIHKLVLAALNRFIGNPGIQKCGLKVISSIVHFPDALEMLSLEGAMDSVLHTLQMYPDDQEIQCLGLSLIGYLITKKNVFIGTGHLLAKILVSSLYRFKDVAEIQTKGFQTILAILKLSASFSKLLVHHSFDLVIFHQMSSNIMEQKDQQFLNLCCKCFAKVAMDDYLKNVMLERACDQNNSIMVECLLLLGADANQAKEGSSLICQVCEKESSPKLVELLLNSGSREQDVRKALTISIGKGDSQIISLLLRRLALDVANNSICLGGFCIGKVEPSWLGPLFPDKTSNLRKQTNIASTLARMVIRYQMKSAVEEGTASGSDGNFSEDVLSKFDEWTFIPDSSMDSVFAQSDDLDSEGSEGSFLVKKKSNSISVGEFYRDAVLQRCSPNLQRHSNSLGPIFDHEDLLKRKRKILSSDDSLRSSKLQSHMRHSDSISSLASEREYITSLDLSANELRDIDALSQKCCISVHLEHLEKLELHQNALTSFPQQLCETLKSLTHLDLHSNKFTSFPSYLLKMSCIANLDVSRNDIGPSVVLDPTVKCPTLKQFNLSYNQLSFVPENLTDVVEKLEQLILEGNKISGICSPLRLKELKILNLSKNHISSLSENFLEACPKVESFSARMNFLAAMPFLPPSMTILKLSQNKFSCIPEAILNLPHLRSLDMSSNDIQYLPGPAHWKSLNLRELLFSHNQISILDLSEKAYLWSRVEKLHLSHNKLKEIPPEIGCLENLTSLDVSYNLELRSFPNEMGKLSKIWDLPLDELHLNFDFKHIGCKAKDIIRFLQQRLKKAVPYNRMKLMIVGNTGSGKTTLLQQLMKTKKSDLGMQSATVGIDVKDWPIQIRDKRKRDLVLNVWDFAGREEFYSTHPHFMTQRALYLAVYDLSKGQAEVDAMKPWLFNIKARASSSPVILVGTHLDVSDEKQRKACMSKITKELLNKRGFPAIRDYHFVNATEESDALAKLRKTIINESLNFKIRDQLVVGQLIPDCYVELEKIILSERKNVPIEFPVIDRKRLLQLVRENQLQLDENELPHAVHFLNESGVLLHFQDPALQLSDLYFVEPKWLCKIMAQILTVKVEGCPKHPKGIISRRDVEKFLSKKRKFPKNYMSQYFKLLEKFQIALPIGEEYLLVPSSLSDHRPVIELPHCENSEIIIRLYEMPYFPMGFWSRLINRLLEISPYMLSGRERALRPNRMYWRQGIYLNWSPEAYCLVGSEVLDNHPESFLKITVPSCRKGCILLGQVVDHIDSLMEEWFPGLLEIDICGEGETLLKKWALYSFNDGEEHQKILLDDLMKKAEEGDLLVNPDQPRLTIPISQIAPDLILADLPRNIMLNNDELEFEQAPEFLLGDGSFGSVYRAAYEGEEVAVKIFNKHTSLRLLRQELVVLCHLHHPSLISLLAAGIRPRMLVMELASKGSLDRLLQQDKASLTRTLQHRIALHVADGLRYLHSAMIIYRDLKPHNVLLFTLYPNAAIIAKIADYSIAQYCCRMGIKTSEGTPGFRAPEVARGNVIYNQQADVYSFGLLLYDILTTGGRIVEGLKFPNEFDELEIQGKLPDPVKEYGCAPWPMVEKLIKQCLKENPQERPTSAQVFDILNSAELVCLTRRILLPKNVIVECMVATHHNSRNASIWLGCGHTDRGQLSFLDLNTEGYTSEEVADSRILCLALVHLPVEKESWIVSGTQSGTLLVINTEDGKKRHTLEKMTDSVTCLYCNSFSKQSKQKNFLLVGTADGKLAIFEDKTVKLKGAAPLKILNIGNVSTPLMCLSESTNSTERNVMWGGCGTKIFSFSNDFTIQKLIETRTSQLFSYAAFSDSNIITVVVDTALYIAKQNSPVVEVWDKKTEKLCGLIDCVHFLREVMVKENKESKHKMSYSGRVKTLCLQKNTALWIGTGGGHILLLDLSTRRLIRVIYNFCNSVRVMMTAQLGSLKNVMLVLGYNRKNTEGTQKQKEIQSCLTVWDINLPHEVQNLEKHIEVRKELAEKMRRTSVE

Compound | IC50
Cc1nn(C(C)(C)C#N)cc1Nc1nc(C2CC2)c2nc[nH]c2n1 [Compound C-9, 2-(4-((6-cyclopropyl-9H-purin-2-yl)amino)-3-methyl-1H-pyrazol-1-yl)-2-methylpropanenitrile] | < 50 nM
Cc1nn(C(C)(C)C#N)cc1Nc1nc(C2CC2)c2c(C#N)c[nH]c2n1 [Compound C-10, 2-[[1-(1-cyano-1-methyl-ethyl)-3-methyl-pyrazol-4-yl]amino]-4-cyclopropyl-7H-pyrrolo[2,3-d]pyrimidine-5-carbonitrile] | < 50 nM
Cc1c(Nc2nc(C3CC3)c3c(C#N)c[nH]c3n2)cnn1C(CF)CF [Compound C-11, 4-cyclopropyl-2-[[1-[2-fluoro-1-(fluoromethyl)ethyl]-5-methyl-pyrazol-4-yl]amino]-7H-pyrrolo[2,3-d]pyrimidine-5-carbonitrile] | < 50 nM
Cn1ccc(Nc2cc(C3CC3)c3nc[nH]c3n2)n1 [Compound C-17, 7-cyclopropyl-N-(1-methyl-1H-pyrazol-3-yl)-3H-imidazo[4,5-b]pyridin-5-amine] | > 100 nM
Cc1c(Nc2nc(C3CC3)c3c(C#N)c[nH]c3n2)cnn1C [Compound C-18, 4-cyclopropyl-2-[(1,5-dimethylpyrazol-4-yl)amino]-7H-pyrrolo[2,3-d]pyrimidine-5-carbonitrile] | < 50 nM
Cn1ccc(Nc2cc(C3CC3)c3c(C#N)c[nH]c3n2)n1 [Compound C-21, 4-cyclopropyl-6-((1-methyl-1H-pyrazol-3-yl)amino)-1H-pyrrolo[2,3-b]pyridine-3-carbonitrile] | < 50 nM
Cc1nn(C(C)(C)C#N)cc1Nc1nc(C2CC2)c2c(Cl)c[nH]c2n1 [Compound C-22] | < 50 nM
Cc1nn(C(C)(C)C#N)cc1Nc1nc(C2CC2)c2cc[nH]c2n1 [Compound C-23] | < 50 nM
Cc1c(Nc2nc(C3CC3)c3cc[nH]c3n2)cnn1C [Compound C-25] | < 50 nM
Cc1nn(C(C)(C)c2ncn(C)n2)cc1Nc1nc(C2CC2)c2cc[nH]c2n1 [Compound C-27] | < 50 nM
Cc1nn(C(C)(C)c2ncn(C)n2)cc1Nc1nc(C2CC2)c2c(Cl)c[nH]c2n1 [Compound C-28] | < 50 nM
Cc1nn(C(C)(C)c2ncn(C)n2)cc1Nc1nc(C2CC2)c2c(F)c[nH]c2n1 [Compound C-29] | < 50 nM
Cc1nn(C(CF)CF)cc1Nc1nc(C2CC2)c2cc[nH]c2n1 [Compound C-30] | < 50 nM
Cc1c(Nc2nc(C3CC3)c3cc[nH]c3n2)cnn1C(CF)CF [Compound C-31] | < 50 nM
Cc1nc2c(C3CC3)nc(Nc3cnn(C)c3C)nc2[nH]1 [Compound C-33] | > 100 nM
Cc1nn(C2(C)CC2)cc1Nc1nc(C2CC2)c2nc[nH]c2n1 [Compound C-36] | < 50 nM
Cc1nn(C(C)(C)c2ccn(C)n2)cc1Nc1nc(C2CC2)c2nc[nH]c2n1 [Compound C-37] | < 50 nM
Cc1c(Nc2nc(C3CC3)c3c(C#N)c[nH]c3n2)cnn1C(F)F [Compound C-39] | < 50 nM
Cc1nn(C(C)(C)C#N)cc1Nc1nc(C2CC2)c2c(C3CC3)c[nH]c2n1 [Compound C-41] | < 50 nM
Cc1nn(C(C)(C)C#N)cc1Nc1nc(C2CC2)c2c(C(F)(F)F)c[nH]c2n1 [Compound C-42] | < 50 nM
Cc1c(Nc2nc(C3CC3)c3c(C#N)c[nH]c3n2)cnn1C1CC2CC2C1 (stereo not drawn) [Compound C-43] | < 50 nM
Cc1nn(C2CC3CC3C2)cc1Nc1nc(C2CC2)c2c(C#N)c[nH]c2n1 (stereo not drawn) [Compound C-44] | < 50 nM
Cc1c(Nc2nc(C3CC3)c3nc[nH]c3n2)cnn1C1CC2CC2C1 (stereo not drawn) [Compound C-45] | < 50 nM
Cc1nn(C2CC3CC3C2)cc1Nc1nc(C2CC2)c2nc[nH]c2n1 (stereo not drawn) [Compound C-46] | < 50 nM
Cc1c(Nc2cc(C3CC3)c3c(C#N)c[nH]c3n2)cnn1C1CC1 [Compound C-53] | < 50 nM

Results, then the molecule that gave them:

IC50 | Compound
< 50 nM | c1nc2c(C3CC3)nc(Nc3cnn4c3CC3(CC3)C4)nc2[nH]1 [Compound C-8, N-(6-cyclopropyl-9H-purin-2-yl)spiro[4,6-dihydropyrrolo[1,2-b]pyrazole-5,1 cyclopropane]-3-amine]
< 50 nM | Cc1nn(C(CF)CF)cc1Nc1nc(C2CC2)c2c(C#N)c[nH]c2n1 [Compound C-12, 4-cyclopropyl-2-[[1-[2-fluoro-1-(fluoromethyl)ethyl]-3-methyl-pyrazol-4-yl]amino]-7H-pyrrolo[2,3-d]pyrimidine-5-carbonitrile]
< 50 nM | N#Cc1c[nH]c2nc(Nc3cnn4c3CC3(CC3)C4)nc(C3CC3)c12 [Compound C-13, 4-cyclopropyl-2-(spiro[4,6-dihydropyrrolo[1,2-b]pyrazole-5,1′-cyclopropane]-3-ylamino)-7H-pyrrolo[2,3-d]pyrimidine-5-carbonitrile]
< 50 nM | Cc1nn(C(C)(C)C#N)cc1Nc1nc(C2CC2)c2c(F)c[nH]c2n1 [Compound C-14, 2-[4-[(4-cyclopropyl-5-fluoro-7H-pyrrolo[2,3-d]pyrimidin-2-yl)amino]-3-methyl-pyrazol-1-yl]-2-methyl-propanenitrile]
< 50 nM | Cc1nn(C)cc1Nc1nc(C2CC2)c2c(C#N)c[nH]c2n1 [Compound C-19, 4-cyclopropyl-2-[(1,3-dimethylpyrazol-4-yl)amino]-7H-pyrrolo[2,3-d]pyrimidine-5-carbonitrile]
< 50 nM | Cc1cn(C)nc1Nc1cc(C2CC2)c2c(C#N)c[nH]c2n1 [Compound C-20, 4-cyclopropyl-6-((1,4-dimethyl-1H-pyrazol-3-yl)amino)-1H-pyrrolo[2,3-b]pyridine-3-carbonitrile]
< 50 nM | Cc1nn(C)cc1Nc1nc(C2CC2)c2cc[nH]c2n1 [Compound C-24]
< 50 nM | Cc1nn(C(C)(C)c2ncn(C)n2)cc1Nc1nc(C2CC2)c2c(C#N)c[nH]c2n1 [Compound C-26]
< 50 nM | Cc1c(Nc2nc(C3CC3)c3c(Cl)c[nH]c3n2)cnn1C(CF)CF [Compound C-32]
> 100 nM | Cc1nc2c(C3CC3)nc(Nc3cn(C)nc3C)nc2[nH]1 [Compound C-34]
> 100 nM | Cc1cn(C)nc1Nc1cc(C2CC2)c2nc[nH]c2n1 [Compound C-35]
< 50 nM | Clc1c(Nc2nc(C3CC3)c3nc[nH]c3n2)cnn1CC1CC1 [Compound C-38]
< 50 nM | Cc1nn(C(F)F)cc1Nc1nc(C2CC2)c2c(C#N)c[nH]c2n1 [Compound C-40]
< 50 nM | Cc1c(Nc2nc(C3CC3)c3c(C#N)c[nH]c3n2)cnn1CCOC(F)F [Compound C-47]
< 50 nM | Cc1c(Nc2nc(C3CC3)c3nc[nH]c3n2)cnn1CCOC(F)F [Compound C-48]
< 50 nM | Cc1c(Nc2nc(C3CC3)c3nc[nH]c3n2)cnn1C1CC1 [Compound C-49]
< 50 nM | Cc1nn(C2CC2)cc1Nc1nc(C2CC2)c2nc[nH]c2n1 [Compound C-50]
< 50 nM | Cc1nn(CC2CC2)cc1Nc1nc(C2CC2)c2nc[nH]c2n1 [Compound C-52]
< 50 nM | Cc1nn(C2CC2)cc1Nc1cc(C2CC2)c2c(C#N)c[nH]c2n1 [Compound C-54]
< 50 nM | Cc1nn(C(CF)CF)cc1Nc1nc(C2CC2)c2c(Cl)c[nH]c2n1 [Compound C-55]
